# Measured values published in US5468773A, “Methods for inhibiting bone loss and cartilage degradation using wortmannin and its analogs” (Eli Lilly and Company, priority 1994, dated 1995).
# Where two headings read alike, the source gives them in different places. Ends that are not written are not given here.
# Tests used:
# [1] = test system: osteoclastic bone resorption; test: serum calcium in a rat model of secondary hyperparathyroidism (calcium deficient diet), 6 hr infusion; assay type: in vivo, Sprague Dawley rats; details: T=0 control 12 mg/dl, P<0.05
# From the text: Compounds were also examined in a rat model of secondary hyperparathyroidism according to similars method as set out in Thomas et al., Bone and Mineral, 4, pp. 73-82 (1988) in an effort to examine the ability of these compounds to inhibit osteoclastic bone resorption in vivo. Serum calcium levels (mg/dl) were previously shown to be dependant on bone resorption in Sprague Dawley rats (400 g males) maintained on a calcium deficient diet for 2 weeks. Serum calcium levels were examined colorimetrically (Sigma, St. Louis) before (T=O) and after 6 hr infusion (T=6) of compounds at a rate of 0.08 ml/hr through cannula inserted into the jugular vein of anesthesized rates. At T=0, the serum calcium of a control rat was 12 mg/dl.
# [2] = test system: hen osteoclasts; test: inhibition of in vitro bone resorption activity of hen osteoclasts; assay type: cell-based; details: for percent of control bone resorption: mean ± SE, n=3-6
# Description: (§1) Control resorption in Table 2b corresponded to 12-62 Howship's lacunae per bone slice (n=4-4. mean ±SE).
# As summarized in Table 3, the various analogs inhibited the resorption of hen osteoclasts with IIIA IC50=10 nM; IIIb, IC50=100 nM; and Ib, IC50=500 nM. Data presented are percent of control bone resorption (n=3-6, mean ±SE). Control levels of resorption varied from 26-49 mg bone resorbed between days 4-6 in culture.
# [3] = test system: ovariectomized rats; test: bone mineral density and content of left proximal tibiae in ovariectomized rats (pQCT); assay type: in vivo, rat; details: 5 weeks, mean ± SD, n=6; for Bone Content: Sham 14 ± 1.5, OVX 10.4 ± 1.2; for Total Bone Mineral Density: Sham 590 ± 26, OVX 494 ± 29
# From the text: As summarized in Table 4, IIIa was also examined in 6 month old, ovariectomized rats. The bone mineral density (mg/cm^3) and bone mineral content (mg) of the left proximal tibiae were quantitated by computer tomography with a Norland 960 pQCT after daily dosing per os for 5 weeks, similar to the methods of Griffin et al., "Dual-energy X-ray Absorptiometry of the Rat: Accuracy, Precision and Measurement of Bone Loss", J. Bone Miner. Res 8, pp. 795-800 (1993). There were five groups of rats with n=6 per group: Sham, OVX, 0.001, 0.01, and 0.1 mg of IIIa/kg per os daily. In vivo data are presented for a 2 mm slice of the left proximal tibia at 5 weeks post-ovariectomy (mean ±standard deviation).
# [4] = test system: rat osteoclasts; test: inhibition of in vitro bone resorption activity of rat osteoclasts (Howship's lacunae per bone slice); assay type: cell-based; details: Osteoclast, Table 2b, mean ± SE, read-out: % Control Bone Resorption
# From the text: as §1
# [5] = test system: post-menopausal loss of bone; details: chronic treatment, clinical data; background; cited from earlier work
# [6] = test system: mammalian osteoclasts; details: background; cited from earlier work
# [7] = 1 mg/kg/day infused via jugular vein
# [8] = Table 3, concentration 1 × 10^-6
# [9] = Table 3, concentration 1 × 10^-7
# [10] = Table 3, concentration 1 × 10^-8
# [11] = Table 3, concentration 1 × 10^-9
# [12] = Osteoclast, read-out: % Control Bone Resorption
compound,measurement,setting,value
"COC[C@H]1OC(=O)c2coc3c2[C@@]1(C)C1=C(C3=O)[C@@H]2CC[C@H](O)[C@@]2(C)C[C@H]1OC(C)=O [IIIa, 17α-Dihydrowortmannin]",serum calcium after 6 hr of infusion,[1]; [7],~5 mg/dL
same,percent of control bone resorption,[2]; [8],8 ± 1%
same,percent of control bone resorption,[2]; [9],29 ± 4%
same,percent of control bone resorption,[2]; [10],67 ± 5%
same,percent of control bone resorption,[2]; [11],94 ± 5%
same,Bone Content,[3]; 0.001 mg/kg/day per os,13.6 ± .6 mg
same,Total Bone Mineral Density,[3]; 0.001 mg/kg/day per os,528 ± 33 mg/cm3
same,Bone Content,[3]; 0.01 mg/kg/day per os,13.5 ± 1 mg
same,Total Bone Mineral Density,[3]; 0.01 mg/kg/day per os,545 ± 26 mg/cm3
same,Bone Content,[3]; 0.1 mg/kg/day per os,11.5 ± .7 mg
same,Total Bone Mineral Density,[3]; 0.1 mg/kg/day per os,494 ± 18 mg/cm3
"COC[C@H]1OC(=O)c2coc3c2[C@@]1(C)C1=C(C3=O)[C@@H]2CC[C@H](O)[C@@]2(C)CC1 [IIIb, 11-Desacetoxy-17α-dihydrowortmannin]",IC50,"[2]; Osteoclast, read-out: IC50, resorption of hen osteoclasts",0.1 µM
same,percent of control bone resorption,[2]; [8],26 ± 3%
same,percent of control bone resorption,[2]; [9],50 ± 4%
same,percent of control bone resorption,[2]; [10],88 ± 19%
same,percent of control bone resorption,[2]; [11],124 ± 23%
Cc1c2c(c(O)c3occ(C(=O)O)c13)[C@@H]1CCC(=O)[C@@]1(C)C=C2 [IVa],percent of control bone resorption,[2]; [8],105 ± 10%
same,percent of control bone resorption,[2]; [9],110 ± 13%
same,percent of control bone resorption,[2]; [10],99 ± 15%
same,percent of control bone resorption,[2]; [11],93 ± 14%
"COC[C@H]1OC(=O)c2coc3c2[C@@]1(C)C1=C(C3=O)[C@@H]2CCC(=O)[C@@]2(C)CC1 [Ib, 11-deacetoxywortmannin]",IC50,"[2]; Osteoclast, hen osteoclasts, analogs, Example 2, read-out: IC50, resorption of hen osteoclasts",0.5 µM
same,percent of control bone resorption,[2]; [8],42 ± 3%
same,percent of control bone resorption,[2]; [9],90 ± 15%
same,percent of control bone resorption,[2]; [10],97 ± 17%
same,percent of control bone resorption,[2]; [11],106 ± 10%
"COC[C@H]1OC(=O)c2coc3c2[C@@]1(C)C1=C(C3=O)[C@@H]2CCC(=O)[C@@]2(C)C[C@H]1OC(C)=O [Wortmannin, wortmannin]",activity at 1 µM,[4]; 1 × 10^-6 M,3 ± 3%
same,activity at 0.1 µM,[4]; 1 × 10^-7 M,30 ± 6%
same,activity at 0.01 µM,[4]; 1 × 10^-8 M,32 ± 13%
same,activity at 0.001 µM,[4]; 1 × 10^-9 M,79 ± 22%
same,activity at 0.0001 µM,[4]; 1 × 10^-10 M,93 ± 11%
same,serum calcium after 6 hr of infusion,[1]; [7],approximately 9 mg/dl
same,activity at 0.01 µM,[2]; [12],90 ± 7%
same,activity at 0.05 µM,[2]; [12],79 ± 2%
same,activity at 0.1 µM,[2]; [12],58 ± 6%
same,activity at 0.5 µM,[2]; [12],52 ± 3%
same,activity at 1 µM,[2]; [12],54 ± 4%
same,activity at 5 µM,[2]; [12],19 ± 1%
same,activity at 10 µM,[2]; [12],23 ± 7%
same,IC50,"[2]; Osteoclast, read-out: IC50, in vitro bone resorption activity",0.3 µM
"calcitonin: calcitonin has been used to treat osteoporotic patients (CGNLSTCMLGTYTQDFNKFHTFPQTAIGVGAP; ends and bridges not checked; cysteine pairing not given here; UniProt P01258 85-116, looked up)",arrest of post-menopausal loss of bone,[5],ineffective to arrest the post-menopausal loss of bone
salmon calcitonin [reference compound],serum calcium after 6 hr of infusion,"[1]; positive control, 12 ug/kg/day",9 mg/dL
same,inhibition of resorption activity of mammalian osteoclasts,[6],directly inhibit the resorption activity of mammalian osteoclasts
